Series [1] concerns OVX rats. The experiment in a line: Volume fraction, ex vivo micro-computed tomography of tibia. The series is classed as in vivo, Sprague-Dawley female rats. The conditions noted are these: OVX rats, oral 10, 100, or 1000 μg/kg. How it is done: (§1) Animals. Six month old, bilaterally ovariectomized (OVX) or sham operated Sprague-Dawley female rats (Harlan Laboratories, Indianapolis, Ind.) were maintained at the University of Louisville Research Resources Center at 22° C. with a 12-h light/dark cycle and ad libitum access to tap water and rodent chow (Purina Laboratory Rodent Diet 5001). All animal procedures were approved by the Institutional Animal Care and Use Committee, which is certified by the American Association for Accreditation of Laboratory Animal Care.
(§2) In vivo experiments were conducted in order to investigate the efficacy of compounds of the presently-disclosed subject matter. In all of the experiments, OVX and sham operated rats were randomly divided into groups of 5-7 animals. In all of the studies experimental groups included: i) Sham-operated control (euthanized six weeks post surgery as a pretreatment control), ii) OVX control (euthanized six weeks post surgery as a pretreatment control), iii) Sham control receiving vehicle, iv) OVX control receiving vehicle, v) OVX receiving 17-ethinyl estradiol (equimolar concentration with a selected test compound), vi) OVX receiving alendronate (1.6 mg/kg), and vii) OVX receiving parathyroid hormone 1-34 (PTH) ([…]). 17-ethinyl estradiol (17 EE) is a free estrogenic agent known to be orally active, and can serve as an example of an anti-catabolic agent. Alendronate (Alen) is a bisphosphonate that is currently used to treat osteoporosis (e.g., Fosamax®, Merck & Co., Inc,), and can serve as an example of an anti-catabolic agent. Parathyroid hormone 1-34 (PTH) is an agent that can serve as an example of an anabolic agent. All compounds and vehicle (1% DMSO in corn oil) were administered three times per week orally by gavage except for PTH which was administered via a subcutaneous injection in a volume of 0.5 ml/kg body mass thrice per week. Compound administration was initiated 6 weeks following surgery and lasted for 6 weeks (18 doses total).
(§3) Compounds of the presently-disclosed subject matter were orally administered to OVX rats at various doses. As indicated above all BTE's were administered three times per week for 6 weeks.
(§4) Following 6 weeks of treatment, blood was obtained from each animal via cardiac puncture following an overnight fast and animals were subsequently euthanized via carbon dioxide asphyxiation. Blood was centrifuged immediately and the obtained serum samples were aliquoted and stored at −70° C. prior to analysis. Uteri were removed and fresh weights were obtained. Uterine masses were normalized to body mass at the end of the experiment. The left and right femora and left and right tibiae were subsequently collected from each animal, cleaned of soft tissue, and stored in saline at 4° C. prior to analysis.
Volume Fraction—Ex vivo micro-computed tomography (μCT). Volume fraction is a representative value for the amount of bone that occupies a given volume or space. High resolution image data were collected using a customized micro-CT system (ACTIS 150/225 system, BIR Inc., Lincolnshire, Ill.). The metaphysis of each right tibia was scanned over a three millimeter range and three-dimensional images were reconstructed. Data were subsequently processed to reveal the volume fraction (BV/TV) occupied by trabecular (cancellous) bone tissue, cortical bone tissue, and whole bone tissue. The resulting data provides information regarding the density of whole bone, cortical bone, and trabecular bone.

The test system of series [2] is OVX rats. Kind of series: Regional femoral density via Archimedes' Principle. The series is classed as in vivo, Sprague-Dawley female rats. The following applies: oral 10, 100, or 1000 μg/kg, three times per week for 6 weeks. How it is done:
as §1, §2, §3
Following 6 weeks of treatment, blood was obtained from each animal via cardiac puncture following an overnight fast and animals were subsequently euthanized via carbon dioxide asphyxiation. […]
Regional Femoral Density via Archimedes' Principle. […] Briefly, each femur was measured with a Cen-Tech Digital Caliper and a cut was made from each end at 20% of the length of the femur plus half the width of the blade. Subsequently, the bone marrow was washed out of the femoral diaphysis and the Archimedes density for each of the three femoral regions was determined as described above.

The nature of series [3]: Hydroxyapatite (HA) Binding Assay. The following applies: 10^−5 M analyte, 50 mM Tris-HCl pH 7.4, 1% DMSO; adjusted such that tetracycline = 100. On the procedure:
A Hydroxyapatite (HA) Binding Assay is used to determine whether compounds have an affinity for bone. Compounds of the presently-disclosed subject matter having a Bone Targeting Portion (RT) are studied using the HA Binding Assay. A 10^−3 M solution of each analyte was made in 100% dimethylsulfoxide (DMSO). A 100 fold dilution was then made to form a 10^−5 M solution in 50 mM Tris-HCl buffer, pH 7.4, 1% DMSO. Tetracycline was used as a reference analyte and approximately 50% was adsorbed to HA at the concentration of 10^−5 M. The HA slurry was 0.5 g/100 mL 50 mM Tris-HCl buffer, 1% DMSO.
For each analyte, two samples were prepared. For one sample, 1 mL of 10^−5 M analyte and 100 μL 50 mM Tris-HCl buffer, 1% DMSO was pipetted into a microcentrifuge tube. For the second sample, 1 mL of 10^−5 M analyte and 100 μL of the HA slurry was pipetted into a microcentrifuge tube. The samples were mixed gently by inversion for 4 minutes and then centrifuged at 12,000 g for 3 minutes to sediment the HA contained in those samples. The supernatant was transferred to another microcentrifuge tube.
An electronic spectral scan (ultraviolet-visible) from 220-520 nm was obtained for each analyte using a Varian Cary 300 Bio Scan. The blank was 50 mM Tris-HCl buffer, 1% DMSO. The wavelength of maximum absorbance (λmax) was determined, and the extinction coefficient (ε) was calculated using the Beer-Lambert Law.
The absorbance of the samples incubated with HA was measured at λmax, and the molar concentration of the analyte was then determined using the Beer-Lambert Law and the previously calculated extinction coefficient. The fraction adsorbed to HA for each sample was subsequently calculated.

The subject of series [4] is OVX rats. The experiment in a line: Quantitative determination of lipid metabolism (total cholesterol, HDL, LDL) in rat serum. In kind it is in vivo, Sprague-Dawley female rats. The conditions noted are these: rat, in vivo. On the procedure:
as §1, §2, §4
Quantitative Determination of Lipid Metabolism (Total Cholesterol HDL, and LDL) in Rat Serum. Total cholesterol, high-density lipoprotein (HDL), and low-density lipoprotein (LDL) were quantitatively determined in the serum of rats in order to evaluate the extraosseous effects of estrogen treatment on lipid metabolism. Commercially available kits from Wako Diagnostics (Richmond, Va.) were used for the evaluations as recommended by the manufacturer.

For series [5], the system named is OVX rats. The experiment in a line: RatLaps ELISA for C-telopeptide fragments of collagen type I (CTX-I) in serum. The series is classed as in vivo, Sprague-Dawley female rats. The following applies: Formula 125 at 1000 μg/kg, 17-ethinyl estradiol equimolar, alendronate 1.6 mg/kg.
Text: RatLaps™ ELISA for C-Telopeptide Fragments of Collagen Type I (CTX-I). […] Bone resorption (CTX-I) was quantitatively assessed in rat serum using the commercially available RatLaps™ ELISA KIT from Nordic Bioscience Diagnostics A/S (Herlev, Denmark) as recommended by the manufacturer.
The next series relates to ICR Swiss mice. The experiment in a line: Stimulation of periosteal bone formation in a mouse calvarial injection model. In kind it is in vivo. The following applies: present-tense example, no data or figure. How it is done: Stimulation of Periosteal Bone Formation in a Mouse Calvarial Injection Model. The anabolic (bone formation) of compounds of the presently-disclosed subject matter are evaluated in the mouse calvarial injection model. Briefly, 4-week-old ICR Swiss mice are injected subcutaneously over the surface of the calvariae with compounds of the presently-disclosed subject matter at concentrations of 0, 1, 3, and 10 mg/kg/day for 5 days (twice a day). Microtubule inhibitor TN-16 (5 mg/kg/day for 2 days, twice a day) are used as a positive control. Mice are sacrificed two weeks after the injections are completed. Dissected calvarial samples are fixed in 10% phosphate-buffered formalin for 2 days, decalcified in 10% EDTA for 2 weeks and then embedded in paraffin. Histological sections are cut and stained with H&E and orange G. New woven bone formation (new bone area) is quantified by histomorphometry using the OsteoMeasure system (OsteoMetrics Inc., Atlanta, Ga.).

For series [6], the system named is OVX rats. Kind of series: Bone mechanical competence indentation test. The series is classed as in vivo, Sprague-Dawley female rats. The conditions noted are these: present-tense example, no data or figure. On the procedure: as §1, §2, §3, §4
Bone Mechanical Competence Indentation Test. After sacrifice, the left tibiae were trimmed to expose the cancellous bone of the proximal tibial metaphysis and an indentation test was performed by advancing a flat-tipped cylindrical post (1.5 mm diameter) axially into the cut surface to measure the compressive strength of the cancellous bone structure.

Series [7] has as its system OVX rats. Kind of series: Uterine mass and uterine mass to body weight ratio in OVX rats. In kind it is in vivo, Sprague-Dawley female rats. The following applies: OVX rats, oral 10, 100, or 1000 μg/kg; compared to animals treated with 17-ethinyl estradiol. On the procedure: as §1, §2, §3, §4
Uterine Mass and Body Weight. […] Uterine mass can be used to as a measure of estrogenic effect occurring in a tissue outside the bone in response to treatment with a test compound or composition. Generally, a lower uterine mass can be associated with a decreased risk of adverse side effects associated with the test compound or composition. A ratio of uterine mass to body weight can be used to correct for any increase in uterine size attributable to the relative size of the individual animal. Body weight and/or uterine mass also serve as an indirect measures of toxicity of a test compound.

In series [8] the test system is SUM1315 human breast cancer cells. Kind of series: Anti-cancer effect: cell proliferation (MTT) assay. The following applies: 0.05, 0.1, 0.5, 1, 5, and 10 μM, days 1-6. In kind it is cell-based. The text has this: Anti-Cancer Effect: Cell Proliferation Assay. The colorometric MTT assay is based on the cleavage of a yellow MTT tetrazolium salt to form purple formazan crystals by the mitochondria of metabolically active and viable cells. The formazan crystals are insoluble in aqueous solution but can be dissolved in acid and quantified using a spectrophotometer. The number of living and viable cells in a sample directly correlates to the amount of purple formazan crystals formed. SUM1315 human breast cancer cells were seeded in triplicate in 96 well plates at 1000 cells/well and were allowed to adhere overnight prior to drug treatment. Compounds of the presently-disclosed subject matter including a bone active portion (RA) derived from an anti-cancer agent, or the free anti-cancer agent, were added to the cells at concentrations of 0.05, 0.1, 0.5, 1, 5, and 10 μM and cells were allowed to grow at 37° C. for 1, 2, 3, 4, 5, or 6 days. In addition, untreated and vehicle (0.1% DMSO) treated wells were included at each time point as controls. Following treatment the MTT assay was subsequently performed and the absorbance at 490 nm was recorded. Three independent experiments were performed and the results were averaged.

For series [9] the test system is unchanged. Kind of series: Anti-cancer effect: colony formation assay. In kind it is cell-based. The following applies: 0.05, 0.1, 0.5, 1, 5, and 10 μM, 10 days. On the procedure: Anti-Cancer Effect: Colony formation assay. The anti-cancer effect of compounds including a bone active portion (RA) derived from an anti-cancer agent was tested. SUM1315 human breast cancer cells (derived from a clinical metastatic nodule) were seeded in 6 well plates at 5000 cells/well in 2 ml of medium. Cells were allowed to adhere overnight prior to drug treatment. Compounds of the presently-disclosed subject matter including a bone active portion (RA) derived from an anti-cancer agent, or the free anti-cancer agent, were added to the cells at concentrations of 0.05, 0.1, 0.5, 1, 5, and 10 μM and cells were allowed to grow at 37° C. for 10 days. In addition, untreated and vehicle (0.1% DMSO) treated wells were included as controls. After 10 days of treatment, medium was removed from each well and cells were subsequently washed with water. Cells were then fixed in 10% formaldehyde for 10 minutes, washed with water and then stained with 0.5% crystal violet for 5 minutes. Colonies of cells were subsequently counted under the microscope in three separate frames. Three independent experiments were performed and the results are an average of the three experiments. Images were obtained from a representative well for each concentration.

SMILES strings stand for the structures. Entries after “also recorded” stand apart in the source; their conditions may differ.

The values below come from US8071575B2, “Methods and compounds for the targeted delivery of agents to bone for interaction therewith” (priority 2007, dated 2011).

`CC12CCC3c4ccc(O)cc4CCC3C1CC[C@H]2OCCC(=O)NCCOCCOCC(=O)Nc1ccc(OCc2ccccc2)c(C(N)=O)c1O` (stereo partly drawn) [Formula 125]: the “bone density from three-dimensional micro-CT images” value in the series with OVX rats [1] is “increase in bone density”. The trabecular volume fraction result in the series with OVX rats [1] (ex vivo micro-CT) is given as “increased, as compared to OVX animals”. The “regional bone density (left femur)” value in the series on OVX rats [2] is “increased regional bone densities, as compared to the OVX animals; also recorded: increased regional bone densities, as compared to the Sham animals”. Also, the “Binding Index (binding to hydroxyapatite)” value in series [3] was found to be 160. Besides, in the series with OVX rats [4], the “lipid metabolism (total cholesterol, HDL, LDL in serum)” value was “limited or no effect”. Also, in the series on OVX rats [5], the “production of CTX-I (bone resorption marker) in serum” value was “do not inhibit production of CTX-I”. In addition, in the series with ICR Swiss mice, the “new bone area (calvarial injection model)” value is recorded as “increase new bone area”. In addition, the “bone strength (indentation test)” value in the series with OVX rats [6] is recorded as “increase bone strength”. Besides, in the series with OVX rats [7], the “ratio of uterine mass to body weight” value was “lower”.

Turning to `COc1cccc2c1C(=O)c1c(O)c3c(c(O)c1C2=O)C[C@@](O)(C(=O)CO)C[C@H]3OC1C[C@H](NC(=O)CCCC(=O)NCCOCCOCC(=O)Nc2ccc(OC)c(C(N)=O)c2O)[C@H](O)[C@H](C)O1` (stereo partly drawn) [Formula 138], in series [8], the “cell proliferation (MTT)” value is listed as “dose-responsive decrease in cell proliferation”. For the same molecule, in series [3], the “Binding Index (binding to hydroxyapatite)” value is reported as 60. For the same molecule, in series [9], the colony formation result is on record as “dose-responsive decrease in colony formation”.
